According to publication PMC5100903, “Tissue Kallikrein Inhibitors Based on the Sunflower Trypsin Inhibitor Scaffold – A Potential Therapeutic Intervention for Skin Diseases” (PLoS ONE, 2016):
“Also recorded” adds a separate entry of the source. Positions of bridges follow the written chain, without caps; N, C: chain ends. Residues, ends and D or L forms follow the SMILES beside them.

What was measured:
[1] = test system: N-tert skin cells; test: KLK5-induced IL-8 secretion, ELISA; assay type: cell-based, human; conditions: KLK5 300 nM, Analogue 6 1515 nM (molar excess 5:1), N-tert cells, 6, 24 and 48 hours
[2] = test system: in vitro skin equivalent cultures (primary human keratinocytes and fibroblasts); test: Organotypic skin culture, in-situ zymography with casein substrate; assay type: cell-based; conditions: 10 μM in PBS, topical, once every day for two days
Protocol: Primary keratinocytes and fibroblasts were isolated from skin biopsies from healthy donors and incubated with 0.25% trypsin/EDTA 3 hours for keratinocytes and Serva 50U/ml collagenase NB6 (Universal Biologicals, Cambridge, UK) 2 hours for fibroblasts. Isolated primary keratinocytes were then co-cultured with lethally irradiated 3T3 mouse fibroblasts and grown in keratinocyte culture media. Primary keratinocytes and fibroblasts from normal donors’ skin biopsies were cultivated in vitro on de-epidermalized dermal matrix as described. Briefly, dermal fibroblasts derived from skin biopsies were seeded onto the reticular side of the de-epidermalized dermal matrix and keratinocytes were seeded on the papillary side. After keratinocytes reached confluence, the culture was lifted at the air-liquid interface for 14 days. The OTCs were then topically treated with Analogue 6 (10 μL, 10 μM) or 1xPBS for the untreated control in two doses each separated by 24hrs. Following treatment, the cultures were harvest and embedded in O.C.T.™ (Sakura Finetek, Netherlands) for cryosections. The cryosections (7 μm thick) of the treated and untreated tissues were washed with 1xPBS. […] Sections were examined under a Leica DM LB fluorescence microscope and the images processed using ImageJ (v1.46).

[3] = target: T1, KLK5 (Homo sapiens, UniProt Q9Y337); test: KLK5 inhibition, fluorogenic Boc-VPR-AMC assay (S1 Table conditions); assay type: biochemical; conditions: KLK5 10 nM, Boc-VPR-AMC 41.6 μM, 1xPBS pH 8.0, 15 min on ice preincubation, read at 15 min, 25°C
T1 construct: purchased Novoprotein
T1 sequence (Q9Y337 23-293): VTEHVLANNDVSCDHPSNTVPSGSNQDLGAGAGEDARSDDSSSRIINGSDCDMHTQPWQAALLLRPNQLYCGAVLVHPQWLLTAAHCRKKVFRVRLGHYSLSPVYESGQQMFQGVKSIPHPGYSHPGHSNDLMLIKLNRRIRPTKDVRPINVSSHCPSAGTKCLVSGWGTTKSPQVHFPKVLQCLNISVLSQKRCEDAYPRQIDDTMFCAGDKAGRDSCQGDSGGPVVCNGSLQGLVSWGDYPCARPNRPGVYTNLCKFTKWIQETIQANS
Protocol: All assays were performed on 96-well microplates and the change in relative fluorescence unit (RFU) was measured by fluorescence spectrometer (BMG FLUOstar OPTIMA). […] Stock solution of Boc-VPR-AMC was prepared by dissolving the solid in dimethyl sulfoxide to 100 mM and 10 mM for MeOSuc-AAPV. For BODIPY_FL casein, it was reconstituted to 1 mg/mL in 1xPBS. […] The % of inhibition was calculated by the following equation: % of Inhibition=(1−(Sample RFU − Min RFU)/(Max RFU − Min RFU)) X100
(§1) Each inhibition curves were done in triplicates with a minimum of five concentration points fitted. Fitting of each curve was done using SigmaPlot with the Four Parameter Logistic Function and the IC50 calculated. […] All tested compounds were reconstituted to stock solution in water.
The diluent for all the tested compounds, protein and substrate was 1xPBS pH 8.0. Zinc sulfate and p-aminobenzamidine were purchased from Sigma (Dorset, U.K.). […] The ligand-protein mixtures were incubated on ice for 15 minutes and 20 μL was transferred to a well of a 96-well microplate (ThermoScientific, Waltham, U.S.) in triplicate. […] Change in RFU was measured 15 minutes after substrate addition at 25°C.

[4] = target: T1, KLK5; test: biochemical
Protocol: All assays were performed on 96-well microplates and the change in relative fluorescence unit (RFU) was measured by fluorescence spectrometer (BMG FLUOstar OPTIMA). The excitation/emission wavelength was 360/460 nm for the substrate Boc-VPR-AMC (Bachem AG, Hauptstrasse, Switzerland) and MeOSuc-AAPV-AMC (Bachem AG, Hauptstrasse, Switzerland) and 485/520 nm for BODIPY_FL casein (Invitrogen, Carlsbad, US). Stock solution of Boc-VPR-AMC was prepared by dissolving the solid in dimethyl sulfoxide to 100 mM and 10 mM for MeOSuc-AAPV. For BODIPY_FL casein, it was reconstituted to 1 mg/mL in 1xPBS. […] The % of inhibition was calculated by the following equation: % of Inhibition=(1−(Sample RFU − Min RFU)/(Max RFU − Min RFU)) X100
as §1
The diluent for all the tested compounds, protein and substrate was 1xPBS. Serially diluted ligands were mixed with diluted recombinant KLK5 (10 nM f/c). The ligand-protein mixtures were incubated on ice for one hour and 19.5 μL was pipetted into a well of a 96-well microplate in triplicates. To start the reaction, 100 μL of the diluted (41.6 μM f/c) Boc-VPR-AMC substrate solution (contained 0.05% v/v Brij35) was added. The plate was incubated at 37°C and the RFU reading was taken 15 minutes after.
There are two previously reported Km values for KLK5 and its substrate Boc-VPR-AMC which allowed the IC50 to Ki conversion. Ki values were calculated according to the Cheng-Prusoff equation Ki= IC50/1+[S]/Km for single site competitive binding.

CC[C@H](C)[C@@H]1NC(=O)[C@H](CO)NC(=O)[C@H](CCCNC(=N)N)NC(=O)[C@H]([C@@H](C)O)NC(=O)[C@@H]2CSSC[C@H](NC(=O)[C@H](Cc3c[nH]cn3)NC(=O)[C@@H]3CCCN3C(=O)[C@@H]3CCCN3C1=O)C(=O)N[C@@H](Cc1c[nH]c3ccccc13)C(=O)N1CCC[C@H]1C(=O)N[C@@H](CC(=O)O)C(=O)NCC(=O)N[C@@H](CCCNC(=N)N)C(=O)N2 [Analogue 6] (cyclo(CTRSIPPHCWPDGR); disulfide 1-9)
suppression of KLK5-induced IL-8 increase [1]: suppress IL-8 increase up to 6 hours (p<0.05) but not 24 hours after stimulation; also recorded: delay the KLK5-induced IL-8 release by up to 6 hours but not for 24 hours
penetration of the cornified layer of in vitro grown skin [2]: penetrated the cornified layer
skin protease activity in epidermis (in-situ zymography) [2]: weaker in the epidermis of the treated skin compared to untreated skin

CC[C@H](C)[C@@H]1NC(=O)[C@H](CO)NC(=O)[C@H](CCCCN)NC(=O)[C@H]([C@@H](C)O)NC(=O)[C@@H]2CSSC[C@H](NC(=O)[C@H](Cc3c[nH]cn3)NC(=O)[C@@H]3CCCN3C(=O)[C@@H]3CCCN3C1=O)C(=O)N[C@@H](Cc1ccccc1)C(=O)N1CCC[C@H]1C(=O)N[C@@H](CC(=O)O)C(=O)NCC(=O)N[C@@H](CCCNC(=N)N)C(=O)N2 [Analogue I10H] (cyclo(CFPDGRCTKSIPPH); disulfide 1-7)
IC50 [3]: 760 nM
IC50 ([4]; KLK5 10 nM, Boc-VPR-AMC 41.6 μM, 1xPBS, one hour on ice preincubation, read at 15 min, 37°C): 352 ± 144 nM
Ki ([4]; calculated from Table 2 IC50 by Cheng-Prusoff equation, read-out: Inhibitory Constant (Ki)): 322 nM

CC[C@H](C)[C@@H]1NC(=O)[C@@H]2CCCN2C(=O)[C@@H]2CCCN2C(=O)[C@H]([C@@H](C)CC)NC(=O)[C@H](CO)NC(=O)[C@H](CCCCN)NC(=O)[C@H]([C@@H](C)O)NC(=O)[C@@H]2CSSC[C@H](NC1=O)C(=O)N[C@@H](Cc1ccccc1)C(=O)N1CCC[C@H]1C(=O)N[C@@H](CC(=O)O)C(=O)NCC(=O)N[C@@H](CCCNC(=N)N)C(=O)N2 [Native SFTI, Sunflower Trypsin Inhibitor 1, reference compound]
IC50 [3]: 300 nM
